Consider 9 molecules from PubChem BioAssay (NCI).

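The compound was tested at five concentrations on cells cultured in 96-well plates, with a 48-hour exposure period. Abbreviation: GI50, concentration required for 50% inhibition of growth. At the TGI there is no net growth.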

Broadly, the GI50 is the concentration giving 50% growth inhibition. In general, TGI refers to the concentration giving total growth inhibition. Low values mean more potent growth arrest, high ones less potent growth arrest.

Test systems include HOP-62 NSCLC; M14 melanoma; NCI-H23 lung; OVCAR-3 ovarian; OVCAR-8 ovarian; SF-295 CNS; SK-MEL-5 melanoma; SK-OV-3 ovarian; SR leukemia; SW-620 colon.
Experiment in all cases: DTP human tumour cell line panel, 48 h

Consider `Cc1ncc(CCCN(C)C)cc1Nc1ncc2c(n1)-c1ccc(C(F)(F)F)cc1NC(=S)C2`, for which the GI50 in the experiment with HOP-62 NSCLC is less than 0.0155 µM; with M14 melanoma, less than 0.016 µM; in the experiment with NCI-H23 lung, less than 0.0138 µM; in the experiment on OVCAR-3 ovarian, 0.0582 µM; in the experiment on OVCAR-8 ovarian it was less than 0.0179 µM; in the experiment on SF-295 CNS, less than 0.01 µM. Besides, the GI50 in the experiment with SK-MEL-5 melanoma was less than 0.0282 µM; in the experiment with SK-OV-3 ovarian, less than 0.0155 µM; with SR leukemia, less than 0.01 µM; in the experiment with SW-620 colon, less than 0.01 µM. For the same molecule, the TGI in the experiment with HOP-62 NSCLC came out at 1.54 µM; in the experiment with M14 melanoma, 15.7 µM; with NCI-H23 lung, 17.1 µM; with OVCAR-3 ovarian it was 15.2 µM; in the experiment on OVCAR-8 ovarian, 23.1 µM; in the experiment on SF-295 CNS, 2.7 µM. Further, the TGI in the experiment with SK-MEL-5 melanoma was determined as 4.85 µM; in the experiment with SK-OV-3 ovarian, 0.448 µM; in the experiment on SR leukemia it was 3.35 µM; in the experiment on SW-620 colon it was 12.3 µM.
Take `CCn1c(-c2ccc(OC(C)=O)cc2)c(C)c2cc(OC(C)=O)ccc21`: the TGI with HOP-62 NSCLC was 47.7 µM; in the experiment with M14 melanoma, 38.9 µM; in the experiment with NCI-H23 lung it was 57.4 µM; with OVCAR-3 ovarian, 42.1 µM; in the experiment on OVCAR-8 ovarian, more than 100 µM; with SF-295 CNS, 96.7 µM. The TGI with SK-MEL-5 melanoma turned out to be 27.1 µM; in the experiment on SK-OV-3 ovarian it was 74.5 µM; in the experiment with SR leukemia, 30.8 µM; in the experiment on SW-620 colon, 82.2 µM.
Take `CCN(CC)c1ccc(N=Nc2ccc(-c3nc4ccc[n+](C)c4s3)cc2)cc1`: the TGI in the experiment with HOP-62 NSCLC is 38.9 µM; in the experiment on M14 melanoma, 37.6 µM; in the experiment on NCI-H23 lung, 24.9 µM; in the experiment with OVCAR-3 ovarian, 15.9 µM; in the experiment with OVCAR-8 ovarian it was 65.3 µM; in the experiment with SF-295 CNS, 37 µM. The TGI worked out at 33.9 µM in the experiment on SK-MEL-5 melanoma, 38.1 µM in the experiment on SK-OV-3 ovarian, 53.7 µM in the experiment on SR leukemia and 26.1 µM in the experiment on SW-620 colon.
As for `Br[C](Br)(Br)[Hg][c]1ccccc1`, the GI50 in the experiment on HOP-62 NSCLC is 13.4 µM; in the experiment with M14 melanoma it was 5.23 µM; with NCI-H23 lung it was 9.3 µM; in the experiment on OVCAR-3 ovarian it was 9.76 µM; in the experiment on OVCAR-8 ovarian, 12.9 µM; with SF-295 CNS it was 15.6 µM. Also, the GI50 is 11.7 µM with SK-MEL-5 melanoma, 19 µM with SK-OV-3 ovarian, 3.32 µM with SR leukemia and 1.65 µM with SW-620 colon. The TGI was 18.7 µM in the experiment on HOP-62 NSCLC; 12.2 µM with M14 melanoma; 23 µM with NCI-H23 lung; 23.3 µM in the experiment with OVCAR-3 ovarian; 18.4 µM in the experiment on OVCAR-8 ovarian; 30 µM in the experiment with SF-295 CNS. Moreover, the TGI in the experiment with SK-MEL-5 melanoma was 24.8 µM; in the experiment with SK-OV-3 ovarian it was 33.1 µM; with SR leukemia it was 20.4 µM; in the experiment on SW-620 colon, 8.01 µM.
Take `CC(C)C[C@H](NC(=O)/C=C/Cn1ccc2ccccc2c1=O)B(O)O`: the GI50 is 4.9 µM with HOP-62 NSCLC; 2.92 µM with M14 melanoma; 5.87 µM with NCI-H23 lung; 2.55 µM in the experiment on OVCAR-3 ovarian; 14.2 µM with OVCAR-8 ovarian; 2.75 µM in the experiment with SF-295 CNS. Moreover, the GI50 was 2.36 µM in the experiment with SK-MEL-5 melanoma, 10.5 µM in the experiment with SK-OV-3 ovarian, 0.887 µM with SR leukemia and 3.55 µM in the experiment with SW-620 colon. Further, the TGI with HOP-62 NSCLC is 25.9 µM; with M14 melanoma, 10.1 µM; with NCI-H23 lung, more than 100 µM; in the experiment with OVCAR-3 ovarian it was 7.88 µM; in the experiment on OVCAR-8 ovarian it was 55.5 µM; in the experiment with SF-295 CNS it was 15.1 µM. Moreover, the TGI is 6.16 µM in the experiment with SK-MEL-5 melanoma, 92.2 µM in the experiment with SK-OV-3 ovarian, 21.8 µM in the experiment on SR leukemia and more than 100 µM with SW-620 colon.
In the case of `COc1cc2[nH]c(C(=O)c3cc(OC)c(OC)c(OC)c3)c(N)c2cc1C#CC1CC1`, the GI50 in the experiment with HOP-62 NSCLC was 2.64 µM; in the experiment with M14 melanoma it was 1.93 µM; in the experiment with NCI-H23 lung, 7.12 µM; in the experiment on OVCAR-3 ovarian, 1.53 µM; in the experiment on OVCAR-8 ovarian it was 5.3 µM; with SF-295 CNS it was 1.66 µM. Moreover, the GI50 is 1.33 µM with SK-MEL-5 melanoma, 3.42 µM in the experiment with SK-OV-3 ovarian, 0.976 µM in the experiment with SR leukemia and 2.9 µM in the experiment with SW-620 colon. The total growth inhibition concentration (TGI) was more than 100 µM in the experiment on HOP-62 NSCLC; more than 100 µM in the experiment with M14 melanoma; more than 100 µM in the experiment on NCI-H23 lung; 5.74 µM in the experiment on OVCAR-3 ovarian; more than 100 µM in the experiment on OVCAR-8 ovarian; more than 100 µM in the experiment on SF-295 CNS. Besides, the TGI with SK-MEL-5 melanoma was 22.4 µM; in the experiment with SK-OV-3 ovarian it was more than 100 µM; in the experiment with SR leukemia, more than 100 µM; in the experiment with SW-620 colon, more than 100 µM.
As for `COc1cc(C(=O)c2cc(C)c3[nH]c4ccc(C)cc4c3c2C)cc(OC)c1OC`, the concentration for 50% growth inhibition (GI50) in the experiment with HOP-62 NSCLC, in the experiment with M14 melanoma, in the experiment with NCI-H23 lung, in the experiment with OVCAR-3 ovarian, with OVCAR-8 ovarian and with SF-295 CNS was less than 0.01 µM each time. Also, the GI50 was less than 0.01 µM in the experiment on SK-MEL-5 melanoma, less than 0.0307 µM in the experiment with SK-OV-3 ovarian, less than 0.01 µM in the experiment with SR leukemia and less than 0.01 µM with SW-620 colon. Besides, the TGI is more than 100 µM in the experiment with HOP-62 NSCLC; more than 100 µM in the experiment on M14 melanoma; more than 100 µM with NCI-H23 lung; more than 100 µM in the experiment with OVCAR-8 ovarian; less than 0.0146 µM with SK-MEL-5 melanoma; more than 100 µM in the experiment on SK-OV-3 ovarian. In addition, the TGI with SR leukemia and in the experiment with SW-620 colon was more than 100 µM throughout.
As to `O=C(O)C1C(Br)(c2ccccc2)C1(Br)c1ccccc1` (stereo not drawn), the total growth inhibition concentration (TGI) in the experiment with HOP-62 NSCLC was more than 100 µM; in the experiment with M14 melanoma it was more than 100 µM; in the experiment on NCI-H23 lung, more than 100 µM; with OVCAR-3 ovarian, more than 100 µM; in the experiment with OVCAR-8 ovarian it was 84.6 µM; in the experiment with SF-295 CNS, more than 100 µM. For the same molecule, the TGI in the experiment on SK-MEL-5 melanoma was 88.8 µM; in the experiment on SK-OV-3 ovarian it was 81 µM; in the experiment on SR leukemia, more than 100 µM; with SW-620 colon, more than 100 µM.
For the molecule `ClCC[N+]12CC[N+](CCCl)(CC1)C2`, the TGI with HOP-62 NSCLC, in the experiment with M14 melanoma, with NCI-H23 lung, with OVCAR-3 ovarian, in the experiment on OVCAR-8 ovarian and with SF-295 CNS was more than 100 µM in each case. Moreover, the TGI with SK-MEL-5 melanoma, in the experiment with SK-OV-3 ovarian, with SR leukemia and with SW-620 colon was more than 100 µM throughout.
